According to patent US6025340A, “Surface expression of enzyme in gene directed prodrug therapy” (priority 1994, dated 2000):

Experiments:
[1] = tested on: MDA MB361 transfected cells (CPG2-expressing line and control line); assay: Sulphorhodamine B cytotoxicity assay; assay type: cell-based; conditions: 4 days incubation
Experimental: Prodrug 2 was also assayed (FIG. 12) in the MDA MB361 transfected cells obtained in Preparative Example 3 using a sulphorhodamine B cytotoxicity assay which was conducted by plating 5000 cells per well in a 96-well microtitre dish. The cells were plated in 160 μl of DMEM medium. After incubation over night the drug or appropriate controls made up in DMEM containing 5% serum was added to the wells in a 40 μl volume. The cells were incubated for 4 days under standard conditions. Following this the medium was removed and the cells treated with ice-cold 10% TCA (trichloroacetic acid) on ice for about 30 minutes. The TCA was removed and the cells rinsed for adding 18 μl of 0.4% sulphorhodamine B (SRB) which was left to stain the cells for 10 minutes. Following staining the cells were rinsed in TCA and air dried before addition of 18 μl of 10 mM TRIS and cell viability was then read. […] (see FIG. 12)

[2] = tested on: NIH3T3 cells transfected with MLVβplink; assay: Cytotoxicity assay, [3H]-thymidine incorporation, transiently transfected control cells; assay type: cell-based, murine; conditions: CMDA 0.5 mM for 3 hours or 24 hours
Experimental: (§1) The ability of CPG2(surface) to kill NIH3T3 cells in the presence of the CMDA pro-drug was examined. Three sets of NIH3T3 cells were prepared, each of which contained one dish of cells transfected with MLVβplink, one dish of cells transfected with MLVCPG2(surface) or one dish of cells transfected with MLVCPG2(surface)LNLL. The cells were incubated for 42 hours following the transfection and then set 1 was incubated in the presence of prodrug vehicle (5 mM Hepes, 0.5% v/v DMSO, pH7.0; final concentrations) for 24 hours. Set 2 was incubated in the presence of the CMDA prodrug (0.5 mM final concentration) for 3 hours. Set 3 was incubated in CMDA (0.5 mM) for 24 hours. Following prodrug treatment, the cells were washed three times with 5 ml 10% FCS/ DMEM and sets 1 and 3 incubted in fresh medium for a further 24 hours, set 2 for 45 hours. The cells were then passaged into fresh culture dishes, seeded at 1×10^5 cells/ 35 mm dish in 2 ml FCS/ DMEM. After a further 72 hour incubation cell growth was assessed by [3H]-thymidine incorporation.
For thymidine incorporaion, 1 μCi of [methyl-^3 H]thymidine was added to each well (2 ml medium) and incubated for 5 hours at 37° C. […] The DNA was extracted with 1 ml 0.1 M NaOH, 1% SDS at room temperature for 5 minutes, added to 4 ml scintilation fluid and the incorporated thymidine determined by scintillation counting.

[3] = tested on: MDA MB 361 cell line M38 constitutively expressing CPG2(surface)QQQ; assay: Cell viability by [3H]-thymidine incorporation, stable line; assay type: cell-based; conditions: for sensitivity to prodrug compared with line M2: 60 minutes at 37° C., viability after 5 days
Experimental: (§2) CPG2(surface) QQQ was cloned into pMCEF-Plink as an Nco1/Xba fragment; this plasmid is called pMCEFCPG2(surface)QQQ. MDA361B cells were transfected with either pMCEFCPG2(surface)QQQ, or with pMCEFlacZ according to the protocol described in the Comparative Example and were treated as for the NIH3T3 cells to generate G418 colonies. The G418 resistant colonies were tested for CPG2(surface)QQQ expression by immunoprotein blot analysis, as described for the NIH3T3 cells. From these analyses, two cell lines, M2 which expresses β-galactosidase and M38, which expresses CPG2(surface)QQQ were selected for further testing. […] The expression of β-galactosidase by line M2 was confirmed by enzymatic assay (FIG. 10B, lane 1 contains M2 extract, lane 2 a control extract).
These cell lines were tested for sensitivity to the CMDA prodrug and prodrug 2. 1×10^5 cells were plated into each well of a 24 well plate. The cells were incubated for 48 hours at 37° C. They were then incubated in increasing concentrations of either CMDA or prodrug 2 for 60 minutes at 37° C., washed twice, returned to medium and incubated for a further 5 days. The viability of the cells was then determined by using [^3 H]-thymidine incorporation.
(§3) In order to examine the bystander effect with the MDA MB 361 cells constitutively expressing CPG2(surface)QQQ, the M38 cell line, the M2 cell line, or a 1:10 mixture of M38: M2 cells were plated (1×10^4 cells) into the wells of a 24 well plate, and incubated for 48 hours. The cells were then treated with varying concentrations of prodrug 2 for 60 min, washed twice with fresh medium and incubated in fresh medium for 5 days. The survival of the cells was then determined by [^3 H-methyl] thymidine incorporation.

[4] = tested on: NIH3T3 cell line #3 constitutively expressing β-galactosidase; assay: Cell survival by [3H]-thymidine incorporation, stable control line; assay type: cell-based, murine; conditions: increasing concentrations, 60 minutes at 37° C.
Experimental: (§4) Stable cell lines were prepared with NIH3T3 cells to constitutively express CPG2 (surface) LNLL, or as a control the lacZ gene product (β-galactosidase). In order to do this, NIH3T3 cells were transfected with pMCEF-CPG2(surface)LNLL or pMCEFlacZ as described in Comparative Example 1 above, and two days after transfection, the cells were plated at low density into medium containing G418 at 1 mg/ml. Colonies coming from single cells could be observed about two weeks later and these were cloned and grown up individually. The expression of CPG2(surface) was determined by immunoprotein blotting of […] of cell extract (extracted as described in the Comparative Example above) from each of the G418 resistant colonies with the antiserum from the Comparative Example 1 above. The cell line #16 which expresses high levels of CPG2(surface)LNLL (FIG. 6A) and cell line #3, which expresses the β-galactosidase (see below) were selected for further investigation. […] 250 μl of 1 MNa2 CO3 was added to the sample and the OD420 was measured.
(§5) Cell lines #3 and #16 obtained in Preparative Example 2 were tested for cytotoxicity with the CMDA pro-drug. […] After a further 6 hour incubation, 10% of the cells were re-plated into 24 well dishes, incubated for a further 5 days and cell survival was determined by [^3 H]-thymidine incorporation.

[5] = tested on: NIH3T3 cell line #16 constitutively expressing CPG2(surface)LNLL; assay: Cell survival by [3H]-thymidine incorporation, stable line; assay type: cell-based, murine; conditions: Mus musculus, 60 minutes treatment at 37° C., survival after 5 days
Experimental: as §4, §5

[6] = tested on: MDA MB 361 cell line M2 constitutively expressing β-galactosidase; assay: Cell viability by [3H]-thymidine incorporation, stable control line; assay type: cell-based
Experimental: as §2
These cell lines were tested for sensitivity to the CMDA prodrug and prodrug 2. 1×10^5 cells were plated into each well of a 24 well plate. The cells were incubated for 48 hours at 37° C. […] The viability of the cells was then determined by using [^3 H]-thymidine incorporation.
as §3, with “The cells were then treated with varying concentrations of prodrug 2 for 60 min, washed twice with fresh medium and incubated in fresh medium for 5 days.” left out

[7] = tested on: NIH3T3 cells transfected with MLVCPG2(surface); assay: Cytotoxicity assay, [3H]-thymidine incorporation, transiently transfected cells; assay type: cell-based, murine; conditions: CMDA 0.5 mM
Experimental: as §1
(§6) For thymidine incorporaion, 1 μCi of [methyl-^3 H]thymidine was added to each well (2 ml medium) and incubated for 5 hours at 37° C. The cells were washed twice with PBSA (4° C.) and fixed with 5% w/v trichloroacetic acid (TCA) in water at 4° C. for 20 minutes. The TCA was removed and the cells washed twice with 2 ml methanol and air dried. The DNA was extracted with 1 ml 0.1 M NaOH, 1% SDS at room temperature for 5 minutes, added to 4 ml scintilation fluid and the incorporated thymidine determined by scintillation counting.

[8] = tested on: NIH3T3 cells transfected with MLVCPG2(surface)LNLL; assay: as above; assay type: cell-based, murine; conditions: CMDA 0.5 mM
Experimental: as §1, §6

[9] = tested on: mixture of NIH3T3 cell lines #3 and #16; assay: Bystander effect, mixed cell lines, [3H]-thymidine incorporation; assay type: cell-based, murine; conditions: 40% of the cells expressing CPG2(surface)LNLL; 250 μM or 1000 μM CMDA for 60 minutes
Experimental: Cell lines #3 and #16 obtained in Preparative Example 2 were tested for cytotoxicity with the CMDA pro-drug. 1×10^5 cells were plated into each well of 24 well dishes, incubated for 40 hours and then treated with increasing concentrations of CMDA at 37° C. for 60 minutes. After a further 6 hour incubation, 10% of the cells were re-plated into 24 well dishes, incubated for a further 5 days and cell survival was determined by [^3 H]-thymidine incorporation.
The bystander effect was determined by mixing cell lines #3 and #16 obtained in Preparative Example 2 at a variety of concentrations as indicated and a total of 1×10^5 cells were plated per well in 24 well plates. The cells were incubated and treated as described in Example 3, except that they were treated with either 250 μM or 1000 μM CMDA for 60 minutes as indicated. The cell survival was determined as in Example 3.

[10] = tested on: 1:10 mixture of M38:M2 MDA MB 361 cells; assay: as above; assay type: cell-based; conditions: Example 7
Experimental: as §3

Structure (SMILES) | difference in susceptibility, CPG2-expressing line versus control line [1] | effect of prodrug treatment on growth rate [2] | sensitivity to prodrug compared with line M2 [3] | sensitivity to prodrug (cell survival) [4] | IC50 [5] [µM] | sensitivity to prodrug ([6]; 60 minutes at 37° C., up to highest concentration tested) | effect of prodrug treatment on cell growth ([7]; 3 hour prodrug treatment) | inhibition at 500 µM ([7]; Mus musculus, NIH3T3, 24 hour prodrug treatment, read-out: inhibition of cell growth) [%] | effect of prodrug treatment on cell growth ([8]; 24 hour prodrug treatment) | inhibition at 500 µM ([8]; Mus musculus, NIH3T3, 3 hour prodrug treatment, read-out: reduction in cell growth) [%] | cells killed [9] | fold more sensitive, M38 cells versus M2 cells ([3]; Example 5, 1×10^5 cells per well, 60 minutes treatment) [fold] | IC50 ([6]; Example 7, 60 min treatment, survival after 5 days) [µM] | fold change of IC50 in 1:10 mixture versus M2 [10] [fold]
[NH2][Pt]([NH2])([Cl])[Cl] [CDDP, Cisplatin] | not found to be any difference |  |  |  |  |  |  |  |  |  |  |  |  | 
CS(=O)(=O)OCCN(CCCl)c1ccc(C(=O)N[C@@H](CCC(=O)O)C(=O)O)cc1 [CMDA, N-4-[(2-chloroethyl)(2-mesyloxyethyl)amino]benzoyl-L-glutamic acid] |  | minimal effect | more sensitive | not sensitive to even the highest concentration | 125 | did not show any sensitivity | unaffected | -87 | complete cell death | -20 | greater than 80% |  |  | 
O=C(O)CC[C@H](NC(=O)Oc1ccc(N(CCI)CCI)cc1)C(=O)O [prodrug 2, N-(4-[bis(2-iodoethyl)amino]phenoxycarbonyl)-L-glutamic acid] |  |  | more sensitive |  |  |  |  |  |  |  |  | ~200 | ~200 | -10
